Reference: ChEMBL document CHEMBL1201862, “PubChem BioAssay data set” (2004)
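96-well plates; 48 h exposure; 5 concentrations. Endpoints by linear interpolation between flanking doses. Not reached: highest tested concentration assigned. GI50 = concentration required for 50% inhibition of growth.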 Activity calls are given as the source filed them. Cut-off read from the data, not from the text of the source: active = GI50 up to about 1.1 µM and inactive = higher.

Tests used:
Experiment in all cases: growth of human tumour cells (NCI), 48 h
[1] = system: OVCAR-5
[2] = system: M14
[3] = system: SF-295
[4] = system: SNB-19
[5] = system: CAKI-1
[6] = system: A549
[7] = system: SK-MEL-2
[8] = system: TK-10
[9] = system: MOLT-4
[10] = system: SF-268
[11] = system: SK-MEL-5
[12] = system: SK-OV-3
[13] = system: CCRF-CEM
[14] = system: KM12
[15] = system: SN12C
[16] = system: Malme-3M
[17] = system: NCI-H23

Measured: GI50

CC1=C(C)CC2(SC1)C(=O)c1ccccc1C2=O
inactive: [1] > 100 µM | [2] > 100 µM | [3] > 100 µM | [4] > 100 µM | [5] 65.9 µM | [6] > 100 µM | [7] > 100 µM | [8] > 100 µM | [9] > 100 µM | [10] > 100 µM | [11] > 100 µM | [12] > 100 µM | [13] 93.8 µM | [14] > 100 µM | [15] > 100 µM | [16] > 100 µM

CC(=O)CN(Cc1cc(C)c2c(c1)c1ccccc1n2Cc1ccccc1)S(=O)(=O)c1ccc(C)cc1
inactive: [2] > 100 µM | [3] > 100 µM | [4] > 100 µM | [17] > 100 µM | [5] > 100 µM | [6] > 100 µM | [7] > 100 µM | [8] > 100 µM | [9] > 100 µM | [10] > 100 µM | [11] > 100 µM | [12] > 100 µM | [13] > 100 µM | [14] > 100 µM | [16] > 100 µM

COc1ccc(-c2ccccc2)c2[nH]c3c(c12)CCNC3=O
inactive: [1] > 100 µM | [2] > 100 µM | [3] > 100 µM | [4] > 100 µM | [17] > 100 µM | [5] > 100 µM | [6] > 100 µM | [8] > 100 µM | [9] > 100 µM | [10] > 100 µM | [11] > 100 µM | [13] > 100 µM | [14] > 100 µM | [15] > 100 µM | [16] > 100 µM

COc1ccccc1CCc1cc(OC)c(OC)c(OC)c1
inactive: [1] 1.56 µM | [2] 47.6 µM | [3] 51.4 µM | [4] 75.9 µM | [5] 57.8 µM | [6] 41.1 µM | [8] 76.7 µM | [9] 23.9 µM | [10] 65.9 µM | [11] 19.5 µM | [13] 31.8 µM | [14] 38.5 µM | [15] 61.9 µM | [16] 49.5 µM

CC(=O)NC(CCCCNC(=O)N(CCCl)N=O)C(=O)NCc1ccccc1 (stereo not drawn)
inactive: [2] > 100 µM | [3] 55.2 µM | [4] > 100 µM | [17] > 100 µM | [5] > 100 µM | [6] > 100 µM | [7] > 100 µM | [9] > 100 µM | [10] 17.9 µM | [13] > 100 µM | [14] > 100 µM | [15] > 100 µM | [16] > 100 µM

CCOC(=O)C1Cc2c(ccc(OC)c2OC)C(=O)C1N (stereo not drawn)
inactive: [1] > 100 µM | [2] > 100 µM | [3] > 100 µM | [4] > 100 µM | [17] > 100 µM | [5] > 100 µM | [6] > 100 µM | [7] > 100 µM | [8] > 100 µM | [9] 91.4 µM | [11] > 100 µM | [12] > 100 µM | [13] > 100 µM | [14] > 100 µM | [15] > 100 µM | [16] > 100 µM

O=C1CC2C=CC1C2CO (stereo not drawn)
inactive: [1] > 100 µM | [2] > 100 µM | [3] > 100 µM | [4] > 100 µM | [5] > 100 µM | [6] > 100 µM | [8] > 100 µM | [9] > 100 µM | [10] > 100 µM | [11] > 100 µM | [12] > 100 µM | [13] > 100 µM | [14] > 100 µM | [15] > 100 µM | [16] > 100 µM

COc1ccc(-c2cc(O)c3cc4c(cc3n2)OCO4)cc1OC
inactive: [2] > 100 µM | [3] > 100 µM | [4] > 100 µM | [17] > 100 µM | [5] > 100 µM | [6] > 100 µM | [7] > 100 µM | [8] > 100 µM | [9] > 100 µM | [10] > 100 µM | [11] 65.6 µM | [12] > 100 µM | [13] > 100 µM | [14] > 100 µM | [15] > 100 µM | [16] > 100 µM

COc1cc2c(cc1O)[C@H](C)C(c1ccc(OC)c(OC)c1)O2 (stereo partly drawn)
inactive: [1] 45.6 µM | [2] 4.68 µM | [3] 6.56 µM | [4] 1.68 µM | [17] 10.6 µM | [5] 3.67 µM | [6] 7.24 µM | [7] 3.1 µM | [8] 15.7 µM | [9] 6.41 µM | [10] 44.4 µM | [11] 6.01 µM | [12] 9.48 µM | [13] 6.21 µM | [14] 16.7 µM | [16] 10.3 µM

COc1ccc(NC(=O)CSc2nnc(-c3ccc(NC(C)=O)cc3)o2)cc1
inactive: [1] 14.4 µM | [2] 17 µM | [3] 15.3 µM | [17] 10.7 µM | [6] 20.9 µM | [7] 19.1 µM | [8] 21.7 µM | [9] 17.4 µM | [10] 15.8 µM | [11] 13.2 µM | [12] 44.1 µM | [13] 9.55 µM | [14] 15.1 µM | [15] 20 µM | [16] 20.6 µM

COC(=O)c1c2c(cc3c1CC1(Cc4cc5c(c(C(C)=O)c4C1)CCC5)C3)CCC2 (stereo not drawn)
inactive: [1] > 100 µM | [2] > 100 µM | [3] 28.8 µM | [4] 58.3 µM | [17] 64.1 µM | [5] 34.2 µM | [6] 27.5 µM | [8] > 100 µM | [9] 38.2 µM | [10] 67.3 µM | [11] 31.8 µM | [13] > 100 µM | [14] > 100 µM | [15] 91.8 µM | [16] 16.4 µM

OC1C2CCC1C1C3C=CC(C3)C21 (stereo not drawn)
inactive: [1] 63.4 µM | [2] > 100 µM | [3] 61.5 µM | [4] > 100 µM | [17] 52.1 µM | [5] 64.9 µM | [6] 57 µM | [7] 32.8 µM | [8] > 100 µM | [9] 64.9 µM | [10] > 100 µM | [11] 87.3 µM | [12] > 100 µM | [13] 39.6 µM | [14] 99.3 µM | [16] > 100 µM

N#Cc1c(-c2ccccc2)cc(-c2cccs2)c(C#N)c1N
inactive: [2] > 100 µM | [3] > 100 µM | [4] > 100 µM | [5] > 100 µM | [6] > 100 µM | [8] > 100 µM | [9] > 100 µM | [10] > 100 µM | [11] > 100 µM | [12] > 10 µM | [13] > 100 µM | [14] > 100 µM | [15] > 100 µM | [16] > 100 µM

O=C(CNC(=O)OCc1ccccc1)Oc1ccccc1
inactive: [1] > 100 µM | [2] > 100 µM | [3] > 100 µM | [17] > 100 µM | [6] > 100 µM | [7] > 100 µM | [8] > 100 µM | [9] > 100 µM | [10] > 100 µM | [11] > 100 µM | [12] > 100 µM | [13] > 100 µM | [14] > 100 µM | [15] > 100 µM | [16] > 100 µM

CC[N+](C)(C)c1ccc(C(=C2C=CC(=[N+](C)C)C=C2)c2ccc(N(C)C)cc2)cc1
inactive: [1] 52 µM | [2] 11 µM | [3] 8.67 µM | [17] 17.7 µM | [5] 23.7 µM | [6] 4.45 µM | [7] 21.1 µM | [8] 28 µM | [9] 12.4 µM | [10] 10.8 µM | [11] 13.4 µM | [12] 19.4 µM | [13] 7.05 µM | [14] 4.55 µM | [15] 4.39 µM | [16] 22.8 µM

O=C(O/N=C1/CCC/C1=C\c1ccccc1)c1ccc([N+](=O)[O-])cc1
inactive: [1] > 100 µM | [2] > 100 µM | [3] > 100 µM | [17] > 100 µM | [5] > 100 µM | [6] > 100 µM | [7] > 100 µM | [8] > 100 µM | [9] > 100 µM | [10] 71.6 µM | [11] > 100 µM | [12] > 100 µM | [13] > 100 µM | [14] > 100 µM | [15] > 100 µM | [16] > 100 µM

NC(=O)/C=C/C(=O)O
inactive: [1] > 5000 µM | [2] > 5000 µM | [3] > 5000 µM | [17] > 5000 µM | [6] > 5000 µM | [7] > 5000 µM | [8] > 5000 µM | [9] > 5000 µM | [10] > 5000 µM | [11] > 5000 µM | [12] > 5000 µM | [13] > 5000 µM | [14] > 5000 µM | [15] > 5000 µM | [16] > 5000 µM

Cc1ccc(-n2c(C)nc3c2C(=O)c2ccccc2C3=O)cc1
inactive: [2] 58.2 µM | [3] 25 µM | [4] 71.9 µM | [17] 25.9 µM | [6] 28.9 µM | [7] 40.7 µM | [8] > 100 µM | [9] > 100 µM | [10] 7.41 µM | [11] 15.2 µM | [12] > 100 µM | [13] 11.1 µM | [14] > 100 µM | [15] 28.4 µM | [16] 20.4 µM
